The results in this text go back to patent publication US12528777B2, “Quinazolinones derivatives for treatment of non-alcoholic fatty liver disease, preparation and use thereof” (Council of Scientific and Industrial Research, priority 2020, dated 2026).

The structures appear in SMILES notation. Entries after “also recorded” stand apart in the source; their conditions may differ.

Data set [1] concerns COP1. The data set is described as follows: qPCR of COP1 mRNA in HepG2 cells. The note with it: 5 μM and 10 μM, 24 hours. It is filed as cell-based. As to the method:
(§1) Ubiquitination of ATGL by COP1 is a post translational event, therefore, it is expected that the mRNA level of ATGL will not change compared to control upon treatment with the compound of the present disclosure which inhibit COP1. To establish this, HepG2 cells were treated with 5 μM and 10 μM of the compounds 9, 107, 171, 179 and 73 for 24 hours. RNA was isolated using TRIzol reagent followed by chloroform treatment and precipitation with isopropanol. cDNA was obtained from the isolated RNA and qPCR was carried out using SyBr green reagent. COP1 and ATGL gene expression levels were checked. 18s was used as control. FIG. 8 illustrates that compounds exert no effect on the mRNA levels of ATGL.

Another data set in a line: Plasma stability assay. It is filed as in vitro ADME, human. As to conditions: for Mean % remaining at 2 hrs in human Plasma: 1 μM, 37° C., 120 min, LC-MS/MS; for Plasma stability: human plasma, after 2 hours, with respect to Propantheline. As to the method: 1 mM Stock of test compound was prepared from 10 mM initial stock solution of compounds by diluting 10 μL of 10 mM stock with 90 μL of DMSO. Then 10 μL of 1 mM stock was diluted with 90 µL of DMSO to give 100 μM concentration. The frozen plasma was thawed at room temperature and centrifuged at 1400 rpm at 4° C., for 15 minutes. Approximately […] of the clear supernatant fraction was transferred to a separate tube and was used for the assay. Final working stock of 1 μM was prepared by diluting 3 μL of 100 μM with 297 μL of plasma. Plasma containing the test compound was incubated for 120 min at 37° C. in shaker with 500 rpm. 50 μL of aliquot of sample at 0, 15, 30, 60 and 120 minutes were precipitated with 150 μL of acetonitrile containing internal standard and centrifuged at 4000 rpm at 4° C. for 20 minutes. 120 μL of supernatant was diluted with 120 μL of water and analyzed by LC-MS/MS.

For data set [2], the system named is ATGL. The data set is described as follows: qPCR of ATGL mRNA in HepG2 cells. The data set is classed as cell-based. The note with it: 5 μM and 10 μM, 24 hours. The method, then: as §1
(In general: Real-time PCR tracks product formation cycle by cycle.)

Data set [3] can be described thus: Lipophilicity assay (octanol/buffer). The data set is classed as physicochemical. As to conditions: for logD: n-octanol / 10 mM sodium phosphate buffer pH 7.4, LC-UV; for Lipophilicity class from Log D: pH 7.4. The method, then:
1.56 g NaH2PO4·2H2O was dissolved in 0.5 L water in a 1 L beaker. After adjusting pH to 7.4 using NaOH solution, the volume was made up to 1 L. Equal volumes of sodium phosphate buffer (10 mM, pH 7.4) and n-octanol were added to a separation funnel and mixed thoroughly by shaking and inverting the funnel several times. The two layers were allowed to separate for overnight and then dispensed in two separate glass bottles. 10 mM stock solution was prepared in 100% DMSO and stored at 4° C. 495 μL of organic phase (1-octanol) was added to each well of a 2 mL deep well plate, followed by 495 μL of buffer and 10 μL of test compound was added. The plate was incubated for 3 hr at room temperature on a plate shaker at 500 rpm. After incubation, the samples were allowed to equilibrate for 20 min and then centrifuged at 4000 rpm for 30 min for complete phase separation and analysed by LC-UV.
Log D=Log (area of octanol/area of buffer)

The target of data set [4] is COP1 (Homo sapiens, UniProt Q8NHY2). The data set is described as follows: In vitro ubiquitination of purified ATGL by COP1 with UbcH6. The data set is classed as biochemical. Set-up: host or cells: HEK293A. As to conditions: 5 μM compound, COP1 overexpressing HEK293A lysate. The source says: Purification of ATGL protein and obtaining COP1 overexpressing cell lysate: Myc-ATGL plasmid and Myc-DDK-COP1 plasmid ([…] each) were transfected separately in cultured HEK293A cells with the help of Lipofectamine2000 (Invitrogen). Cells were harvested in Lysis Buffer and protein solution was extracted as described previously. The Lysis Buffer used to harvest COP1 overexpressing cells had 0.1% SDS supplemented in it. The concentration of protein was estimated using Bradford assay. For source of E3 ligase, the total cell lysate from COP1 overexpressing HEK293A cells were used.
For purification of Myc-ATGL: 1 ml of Ni^2+-NTA resin (Roche) was taken in a 15 ml centrifuge tube and centrifuged at 2000 RPM for 5 minutes. The upper ethanol layer was discarded and the pellet was washed in 1×PBS twice to remove any remaining traces of ethanol. The pellet was finally washed once with Lysis Buffer for equilibration. […] The tube was incubated overnight at 4° C. in a rotary shaker.
The next day, the solution was centrifuged at 2000 RPM for 10 minutes and the supernatant collected. Lysis Buffer (containing protease inhibitor cocktail twice the previous concentration) was used for washing the beads twice to remove non-specific and unattached reactants in a stringent condition. The beads were finally washed once with 1×PBS containing the same amount of protease inhibitor for equilibration. 300 μl of 500 mM Imidazole (Sigma Aldrich) solution in 1×PBS was added to the resin for elution of ATGL and centrifuged at 2000 RPM for 30 minutes and the eluted protein was collected. To the separated resin, 300 μl of 1M Imidazole solution was added and centrifuged at 2000 RPM for 30 minutes and the second elute was collected. […] of eluted protein from each elution was boiled with 5 μl of Laemmli's buffer at 95° C. for 10 minutes and run in 10% SDS-PAGE gel. The supernatant collected before elution of ATGL and the proteins still attached to the Ni^2+-NTA resin were also run in the SDS-PAGE. The resolved proteins were subsequently transferred on PVDF membranes and probed with anti-myc primary antibody to check the presence of purified ATGL in the elute. Also to check the yield of the purified protein, 40 μl of the elute was run in 10% SDS page and stained with Coomassie Brilliant Blue solution followed by destaining with methanol, glacial acetic acid and water in a 50:40:10 ratio.
For identifying the E2 ubiquitin-conjugating enzyme responsible for ATGL ubiquitination by COP1, an in vitro ubiquitinylation kit (Enzo Life Sciences) was used. The assay was reconstituted as per manufacturer's protocol with the panel of E2 conjugating enzymes provided and other required components at the mentioned concentrations. The reaction was carried out for 6 hours following which it was quenched as per directions with the provided 2× non-reducing gel buffer and then analysed by western blotting.
Having identified the E2 ubiquitin conjugating enzyme as UbcH6, ubiquitination assay was set up in vitro as described previously with 5 μM of the compound 9, 107, 171, 179 and 73 followed by quenching and analysis by western blotting.
Ubiquitination of a target protein is carried out in a three step process involving three different enzymes: E1 ubiquitin activating enzyme, E2 ubiquitin conjugating enzyme and E3 ubiquitin ligase. In humans, there is only one E1 ubiquitin activating enzyme and multiple E2 and E3 enzymes. […]

The test system of data set [5] is ATGL. The data set is described as follows: Western blot of ATGL level in HepG2 cells. It is filed as cell-based. Set-up: key to Increase in ATGL level: + = slight or in insignificant; ++ = Moderate; +++ and ++++ = active; +++ and ++++ = active; +++++ = very active. As to conditions: HepG2 cells, western blot, score. Summed up: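 HepG2 cells were treated with compound 24 h (10 μM screen; 50 nM–5 μM dose series) and lysed. 30 μg protein was western blotted for ATGL, with actin as loading reference. ATGL increase was expressed as percent of the 1.6-fold siCOP1 maximum and plotted against log concentration for EC50.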
For orientation: In western blotting, separated proteins are transferred to a membrane and probed.

In data set [6] the test system is HepG2 cells. The data set is described as follows: Basal oxygen consumption rate (OCR) by Seahorse. It is filed as cell-based. As to conditions: 5 μM, 24 hours, hydrochloride. As to the method:
HepG2 cells were plated in Seahorse cell culture microplates (24 well). Cells were treated with 5 μM of compounds 9, 107, 238 and 238a for 24 hours. The calibrator plate was dipped in the calibrator solution and incubated overnight at 37° C. in a non-CO2 incubator. The next day, cells were washed with Agilent Seahorse XF Base Medium, Minimal DMEM twice, making sure to leave at least 50 μl of media in the wells and incubated for 1 hour at 37° C. in a non-CO2 incubator. Following this, oxygen consumption rate was measured in the Seahorse instrument. FIG. 12 illustrates basal oxygen consumption rate of compounds 9, 107, 238a, and 238.

Data set [7] is described as follows: Metabolic stability using Human Liver Microsomes. The data set is classed as in vitro ADME. The method, then: 1 mM stock solution of test compound was prepared in DMSO and diluted with Acetonitrile:Water (1:1) to get a 100 μM working concentration. 100 mL of Milli Q water was added to K2HPO4 (1.398 g) and KH2PO4 (0.27 g) to get final pH 7.4 solution of potassium phosphate buffer. […] The above mixture was pre incubated for 15 minutes at 37° C. After pre incubation, 32.5 μL of the mixture was added to 17.5 μL of buffer, this was incubated for 60 minutes at 37° C. [60 min Without Cofactor (NADPH)]. 16.25 μL of the pre incubated mixture and 8.75 μL of cofactor was added to 150 μL of acetonitrile containing internal standard [0 min Sample]. 62 μL of cofactor was added to remaining pre incubation mixture [Incubation mixture]. 25 μL of incubation mixture at 0, 5, 15, 30, 60 min and 60 min without cofactor were precipitated with 150 μL of acetonitrile containing internal standard, vortexed and centrifuged at 4000 rpm at 4° C. for 20 minutes. 120 μL of supernatant was diluted with 120 μL of water and analyzed by LC-MS/MS [sample preparation].
Background: Liver microsomes are a subcellular fraction often used to study metabolism.

In data set [8] the test system is HepG2 cells. The data set is described as follows: Confocal microscopy: lipid droplets in oleate induced HepG2 cells. It is filed as cell-based. Set-up: key to Reduction in Lipid Droplets: + = slight or in insignificant; ++ = Moderate; +++ and ++++ = active; +++ and ++++ = active; +++++ = very active. As to conditions: oleate induced HepG2 cells, score. In a few lines: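 HepG2 cells were loaded with 250 μM oleate and given compound in DMSO (10 μM screen; 10 nM–5 μM dose series) for 24 h; BSA as negative control. Lipid droplets stained with BODIPY/Hoechst, imaged confocally; mean droplets per cell counted over ~20 cells versus oleate-only cells.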

COP1 (Homo sapiens, UniProt Q8NHY2), sequence (Q8NHY2 whole entry): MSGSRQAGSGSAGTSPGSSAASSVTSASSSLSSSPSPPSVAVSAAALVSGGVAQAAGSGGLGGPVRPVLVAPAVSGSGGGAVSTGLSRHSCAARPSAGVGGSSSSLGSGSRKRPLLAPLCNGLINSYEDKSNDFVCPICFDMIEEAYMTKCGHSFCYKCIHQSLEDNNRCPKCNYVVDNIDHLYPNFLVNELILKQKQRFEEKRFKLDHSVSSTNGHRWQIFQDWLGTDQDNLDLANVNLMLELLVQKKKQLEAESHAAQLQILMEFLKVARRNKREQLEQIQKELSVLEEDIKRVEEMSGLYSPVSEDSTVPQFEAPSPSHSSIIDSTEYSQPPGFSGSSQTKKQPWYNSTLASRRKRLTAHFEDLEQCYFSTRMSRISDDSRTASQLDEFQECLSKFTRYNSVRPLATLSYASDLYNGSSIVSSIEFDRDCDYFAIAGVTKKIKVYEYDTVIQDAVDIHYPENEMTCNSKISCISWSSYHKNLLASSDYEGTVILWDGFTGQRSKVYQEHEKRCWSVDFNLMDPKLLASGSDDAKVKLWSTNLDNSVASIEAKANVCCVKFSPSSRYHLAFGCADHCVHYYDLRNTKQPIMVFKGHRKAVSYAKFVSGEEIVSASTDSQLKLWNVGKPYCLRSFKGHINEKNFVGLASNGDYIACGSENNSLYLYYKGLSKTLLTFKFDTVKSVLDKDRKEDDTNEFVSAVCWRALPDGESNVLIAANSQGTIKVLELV

In the case of `COCCn1cnc2ccc(NC(=O)Nc3cccc(C(C)=O)c3)c(Br)c2c1=O` [Compound 73, 1-(3-acetylphenyl)-3-(5-bromo-3-(2-methoxyethyl)-4-oxo-3,4-dihydroquinazolin-6-yl)urea], in the data set on COP1 [1], the “COP1 mRNA level” value was “no significant changes”. Besides, in “Plasma stability assay”, the “Mean % remaining at 2 hrs in human Plasma” value is given as 10.3% and the “Plasma stability” value is reported as “lower plasma stability”. Besides, the “ATGL mRNA level” value with ATGL [2] is on record as “no significant changes”. In data set [3], the logD (in general, the decadic logarithm of the distribution of all forms, ionised or not, between an organic phase and buffer at a given pH) was 1.95; the “Lipophilicity class from Log D” value is recorded as “ideal lipophilicity”. Further, the “ATGL ubiquitination by COP1 in vitro” value at COP1 [4] is “effective in reducing the ubiquitination of ATGL by COP1”.

Take `CCC(COC)n1cnc2ccc(NC(=O)Nc3cccc(C(C)=O)c3)cc2c1=O` (centres unmarked) [Compound 171, 1-(3-acetylphenyl)-3-(3-(1-methoxybutan-2-yl)-4-oxo-3,4-dihydroquinazolin-6-yl)urea]: the “Increase in ATGL level” value with ATGL [5] is listed as “+++”. For the same compound, the “COP1 mRNA level” value with COP1 [1] is “no significant changes”. Besides, the “ATGL mRNA level” value in the data set on ATGL [2] is “no significant changes”. Further, the “ATGL ubiquitination by COP1 in vitro” value on COP1 [4] was “effective in reducing the ubiquitination of ATGL by COP1”.

Consider `COCCn1c(CN2CCCCC2)nc2ccc(NC(=O)Nc3cccc(C(C)=O)c3)cc2c1=O.Cl` [Compound 238a, 1-(3-acetylphenyl)-3-(3-(2-methoxyethyl)-4-oxo-2-(piperidin-1-ylmethyl)-3,4-dihydroquinazolin-6-yl)urea hydrochloride], for which the “Basal oxygen consumption rate” value in the data set on HepG2 cells [6] is “higher oxygen consumption rate compared to control; also recorded: increase in the basal OCR values”.

For the compound `CC(=O)c1cccc(NC(=O)Nc2ccc3ncn(CC(=O)Nc4ccccc4F)c(=O)c3c2)c1` [Compound 253, 2-(6-(3-(3-acetylphenyl)ureido)-4-oxoquinazolin-3 (4H)-yl)-N-(2-fluorophenyl)acetamide], in the data set with ATGL [5], the “Increase in ATGL level” value was “+”. For the same compound, in “Plasma stability assay”, the “Mean % remaining at 2 hrs in human Plasma” value came out at 67.2% and the “Plasma stability” value is “good plasma stability”. Also, in data set [3], the logD amounted to 3.01 and the “Lipophilicity class from Log D” value is “ideal lipophilicity”. In data set [7], the “Clearance class from % QH” value is listed as “lower clearance”. In data set [7] (NADPH, 0-60 min), the “% QH (Well stirred model)” value is 29.8%. Also, the “Reduction in Lipid Droplets” value with HepG2 cells [8] is “++”.
